Data set [1] relates to Mycobacterium tuberculosis. Kind of data set: Antimycobacterial activity against Mycobacterium tuberculosis H37Rv ATCC 27294 assessed as inhibition of bacterial growth incubated for 18 to 24 hrs by broth dilution method. It counts as functional. On the technique in general: In broth dilution the organism is exposed to a series of concentrations in liquid medium.
Data set [2] is described as follows: Selectivity index, ratio of CC50 for cytotoxicity against African green monkey Vero cells assessed as reduction in cell viability to MIC for antibacterial activity against Mycobacterium tuberculosis H37Rv ATCC 27294 assessed as inhibition of bacterial growth. It counts as toxicity, cell-based. To be noted: read-out: Selectivity Index.
For data set [3], the system named is Staphylococcus aureus. Kind of data set: Antibacterial activity against Staphylococcus aureus ATCC 29213 assessed as inhibition of bacterial growth measured for 18 to 24 hrs by broth dilution method. Particulars: time 18-24 hrs. It counts as functional.
The nature of data set [4]: Cytotoxicity against African green monkey Vero cells assessed as reduction in cell viability incubated for 72 hrs by MTT assay. It counts as toxicity, cell-based. Particulars: chlorocebus sabaeus. Background: Formazan colour is commonly taken as a measure of viable cells.
Data set [5] concerns Mycobacterium tuberculosis. Kind of data set: Antimycobacterial activity against Mycobacterium tuberculosis H37Rv assessed as reduction in bacterial growth. It counts as functional.
In data set [6] the test system is Mycobacterium tuberculosis. Kind of data set: Antimycobacterial activity against ethambutol-resisitant Mycobacterium tuberculosis ATCC 35837 assessed as inhibition of bacterial growth incubated for 18 to 24 hrs by broth dilution method. It counts as functional. To be noted: time 18-24 hrs.
The nature of data set [7]: Metabolic stability in human liver microsome assessed as elimination rate constant at 1 uM preincubated for 5 mins followed by NADPH addition and measured after 60 mins by LC-MS/MS analysis. It counts as ADME. To be noted: liver microsomes, time 65 min.
The nature of data set [8]: Metabolic stability in human liver microsome assessed as half life at 1 uM preincubated for 5 mins followed by NADPH addition and measured after 60 mins by LC-MS/MS analysis. To be noted: liver microsomes, time 65 min. It counts as ADME. On the technique in general: Microsomes from liver hold many membrane-bound enzymes, among them those of drug oxidation.
Data set [9] is described as follows: Aqueous solubility of compound in phosphate buffer at pH 7.4 incubated for 16 hrs by HPLC analysis. It counts as physicochemical.
Data set [10] in a line: Metabolic stability in human liver microsome assessed as intrinsic clearance at 1 uM preincubated for 5 mins followed by NADPH addition and measured after 60 mins by LC-MS/MS analysis. It counts as ADME. To be noted: liver microsomes, time 65 min, read-out: CLH.
Data set [11] has as its system Mycobacterium tuberculosis. Kind of data set: Antimycobacterial activity against streptomycin-resisitant Mycobacterium tuberculosis ATCC 35820 assessed as inhibition of bacterial growth incubated for 18 to 24 hrs by broth dilution method. It counts as functional. Particulars: time 18-24 hrs.
Data set [12] relates to Mycobacterium tuberculosis. Nature of the data set: Antimycobacterial activity against rifampicin-resisitant Mycobacterium tuberculosis ATCC 35838 assessed as inhibition of bacterial growth incubated for 18 to 24 hrs by broth dilution method. It counts as functional. Particulars: time 18-24 hrs.
The test system of data set [13] is Mycobacterium tuberculosis. Nature of the data set: Antimycobacterial activity against isoniazid-resisitant Mycobacterium tuberculosis ATCC 35822 assessed as inhibition of bacterial growth incubated for 18 to 24 hrs by broth dilution method. Particulars: time 18-24 hrs. It counts as functional.
Data set [14] concerns Staphylococcus aureus. Nature of the data set: Antibacterial activity against methicillin/ceftriaxone/meropenem/vancomycin/teicoplanin resistant Staphylococcus aureus VRS 12 assessed as reduction in bacterial growth incubated for 18 to 24 hrs by broth dilution method. It counts as functional. To be noted: time 18-24 hrs.
For data set [15], the system named is Staphylococcus aureus. Kind of data set: Antibacterial activity against methicillin-susceptible Staphylococcus aureus assessed as reduction in bacterial growth incubated for 18 to 24 hrs by broth dilution method. Particulars: time 18-24 hrs. It counts as functional.
The test system of data set [16] is Staphylococcus aureus. Kind of data set: Antibacterial activity against methicillin/ceftriaxone/meropenem resistant Staphylococcus aureus NRS 129 assessed as reduction in bacterial growth incubated for 18 to 24 hrs by broth dilution method. To be noted: time 18-24 hrs. It counts as functional.
In data set [17] the test system is Staphylococcus aureus. Kind of data set: Antibacterial activity against methicillin/ceftriaxone/meropenem resistant Staphylococcus aureus NRS 193 assessed as reduction in bacterial growth incubated for 18 to 24 hrs by broth dilution method. It counts as functional. To be noted: time 18-24 hrs.
The subject of data set [18] is Staphylococcus aureus. Kind of data set: Antibacterial activity against methicillin/ceftriaxone/meropenem/vancomycin/teicoplanin resistant Staphylococcus aureus VRS 4 assessed as reduction in bacterial growth incubated for 18 to 24 hrs by broth dilution method. It counts as functional. To be noted: time 18-24 hrs.
Data set [19] concerns Staphylococcus aureus. Kind of data set: Antibacterial activity against methicillin/ceftriaxone/meropenem resistant Staphylococcus aureus NRS 186 assessed as reduction in bacterial growth incubated for 18 to 24 hrs by broth dilution method. It counts as functional. Particulars: time 18-24 hrs.
Data set [20] concerns Staphylococcus aureus. Kind of data set: Antibacterial activity against methicillin/ceftriaxone/meropenem/gentamycin/linezolid resistant Staphylococcus aureus NRS 119 assessed as reduction in bacterial growth incubated for 18 to 24 hrs by broth dilution method. It counts as functional. Particulars: time 18-24 hrs.
For data set [21], the system named is Staphylococcus aureus. Nature of the data set: Antibacterial activity against methicillin/ceftriaxone/meropenem/gentamycin/vancomycin/teicoplanin resistant Staphylococcus aureus VRS 1 assessed as reduction in bacterial growth incubated for 18 to 24 hrs by broth dilution method. To be noted: time 18-24 hrs. It counts as functional.
In data set [22] the test system is Staphylococcus aureus. Kind of data set: Antibacterial activity against methicillin/ceftriaxone/meropenem resistant Staphylococcus aureus NRS 198 assessed as reduction in bacterial growth incubated for 18 to 24 hrs by broth dilution method. It counts as functional. To be noted: time 18-24 hrs.
The subject of data set [23] is Staphylococcus aureus. Kind of data set: Antibacterial activity against methicillin/ceftriaxone/meropenem resistant Staphylococcus aureus NRS 192 assessed as reduction in bacterial growth incubated for 18 to 24 hrs by broth dilution method. It counts as functional. To be noted: time 18-24 hrs.
The test system of data set [24] is Staphylococcus aureus. Kind of data set: Antibacterial activity against methicillin/ceftriaxone/meropenem resistant Staphylococcus aureus NRS 191 assessed as reduction in bacterial growth incubated for 18 to 24 hrs by broth dilution method. It counts as functional. Particulars: time 18-24 hrs.
In data set [25] the test system is Staphylococcus aureus. Nature of the data set: Antibacterial activity against methicillin/ceftriaxone resistant Staphylococcus aureus NRS 194 assessed as reduction in bacterial growth incubated for 18 to 24 hrs by broth dilution method. It counts as functional. To be noted: time 18-24 hrs.
Data set [26] deals with Staphylococcus aureus. Kind of data set: Antibacterial activity against methicillin/ceftriaxone/meropenem/gentamycin/linezolid resistant Staphylococcus aureus NRS 100 assessed as reduction in bacterial growth incubated for 18 to 24 hrs by broth dilution method. It counts as functional. Particulars: time 18-24 hrs.
The test system of data set [27] is Staphylococcus aureus. Kind of data set: Antibacterial activity against Staphylococcus aureus assessed as reduction in bacterial growth. It counts as functional.
For the next data set, the target named is DNA gyrase (Escherichia coli, UniProt P0AES4+P0AES6). Nature of the data set: Inhibition of Escherichia coli DNA gyrase. It counts as protein-complex assay.

The results in this text go back to ChEMBL document CHEMBL5329155, “Synthesis and pharmacological evaluation of 1,3-diaryl substituted pyrazole based (thio)urea derivatives as potent antimicrobial agents against multi-drug resistant Staphylococcus aureus and Mycobacterium tuberculosis” (RSC Med Chem, 2023).

In brackets after ≈: the same amount, converted by molar mass.

For `COc1ccc(-c2ccn(-c3ccc(NC(=O)NCc4ccccc4)cc3)n2)cc1OC`, the values for the minimal inhibitory concentration (MIC) (in data set [1]; in the data set with Staphylococcus aureus [3]) were 1 µg/mL (≈ 2.33 µM) and more than 64 µg/mL, respectively. The selectivity ratio in [2] was found to be 20. Besides, the CC50 at 72 h in data set [4] stood at 20 µg/mL (≈ 46.7 µM).

Consider `COc1ccc(-c2nn(-c3ccc(Cl)cc3)cc2Cn2cncn2)cc1`, for which the minimal inhibitory concentration (MIC) in data set [5] came to 4.4 µg/mL (≈ 12 µM).

As to `COc1ccc(-c2ccn(-c3ccc(NC(=O)Nc4ccc(F)cc4F)cc3)n2)cc1OC`, the MIC in data set [1] was 1 µg/mL (≈ 2.22 µM); in [6], 64 µg/mL (≈ 142 µM); in the data set with Staphylococcus aureus [3] it was more than 64 µg/mL; in [11], more than 64 µg/mL; in data set [12] it was 4 µg/mL (≈ 8.88 µM); in [13], more than 64 µg/mL. For the same compound, the selectivity ratio in data set [2] was more than 200. The k el at 1 h, 1 µM in data set [7] was 8.33e-05 s⁻¹. In addition, the half-life at 1 µM in [8] is 129 min. For the same compound, the solubility at 16 h in [9] was determined as 6 µg/mL (≈ 13.3 µM). Also, the microsomal CLint at 1 µM in [10] was determined as 10.4 µL/min/mg. In addition, the CC50 at 72 h in [4] was more than 200 µg/mL.

`C[C@@H](O)[C@H]1C(=O)N2C(C(=O)O)=C(S[C@@H]3CN[C@H](C(=O)N(C)C)C3)[C@H](C)[C@H]12` [MEROPENEM]: the MIC was found to be 2 µg/mL (≈ 5.22 µM) in the data set with Staphylococcus aureus [14]; 0.125 µg/mL (≈ 0.326 µM) in the data set with Staphylococcus aureus [15]; 8 µg/mL (≈ 20.9 µM) in the data set on Staphylococcus aureus [16]; 64 µg/mL (≈ 167 µM) in the data set on Staphylococcus aureus [17]; 64 µg/mL (≈ 167 µM) with Staphylococcus aureus [18]; 8 µg/mL (≈ 20.9 µM) in the data set on Staphylococcus aureus [19]. Also, the MIC with Staphylococcus aureus [20] amounted to 64 µg/mL (≈ 167 µM); with Staphylococcus aureus [21] it was 64 µg/mL (≈ 167 µM); with Staphylococcus aureus [22], 64 µg/mL (≈ 167 µM); in the data set on Staphylococcus aureus [23], 16 µg/mL (≈ 41.7 µM); in the data set with Staphylococcus aureus [24], 64 µg/mL (≈ 167 µM); with Staphylococcus aureus [25] it was 2 µg/mL (≈ 5.22 µM). Further, the minimum inhibitory concentration (MIC) with Staphylococcus aureus [26] was 64 µg/mL (≈ 167 µM).

Turning to `CO[C@H]1/C=C/O[C@@]2(C)Oc3c(C)c(O)c4c(O)c(c(/C=N/N5CCN(C)CC5)c(O)c4c3C2=O)NC(=O)/C(C)=C\C=C\[C@H](C)[C@H](O)[C@@H](C)[C@@H](O)[C@@H](C)[C@H](OC(C)=O)[C@@H]1C` [RIFAMPIN], the MIC in data set [1] turned out to be 0.06 µg/mL (≈ 0.0729 µM); in data set [6] it was 0.03 µg/mL (≈ 0.0365 µM); in [11] it was 0.03 µg/mL (≈ 0.0365 µM); in data set [12] it was 64 µg/mL (≈ 77.8 µM); in [13] it was 0.03 µg/mL (≈ 0.0365 µM).

For the compound `CN[C@@H]1[C@H](O[C@H]2[C@H](O[C@H]3[C@H](O)[C@@H](O)[C@H](N=C(N)N)[C@@H](O)[C@@H]3N=C(N)N)O[C@@H](C)[C@]2(O)C=O)O[C@@H](CO)[C@H](O)[C@H]1O` [STREPTOMYCIN], the minimal inhibitory concentration (MIC) in data set [1] was 1 µg/mL (≈ 1.72 µM); in [6] it was 1 µg/mL (≈ 1.72 µM); in data set [11], more than 64 µg/mL; in [12], 1 µg/mL (≈ 1.72 µM); in [13], 1 µg/mL (≈ 1.72 µM).

With `CC[C@@H](CO)NCCN[C@@H](CC)CO` [ETHAMBUTOL], the minimal inhibitory concentration (MIC) in data set [1] was determined as 2 µg/mL (≈ 9.79 µM); in [6], 32 µg/mL (≈ 157 µM); in data set [11], 2 µg/mL (≈ 9.79 µM); in data set [12], 2 µg/mL (≈ 9.79 µM); in data set [13], 4 µg/mL (≈ 19.6 µM).

With `C[C@H]1COc2c(N3CCN(C)CC3)c(F)cc3c(=O)c(C(=O)O)cn1c23` [LEVOFLOXACIN ANHYDROUS], the minimal inhibitory concentration (MIC) was 0.25 µg/mL (≈ 0.692 µM) in data set [1]; 32 µg/mL (≈ 88.6 µM) in the data set with Staphylococcus aureus [14]; 0.25 µg/mL (≈ 0.692 µM) in the data set with Staphylococcus aureus [15]; 0.25 µg/mL (≈ 0.692 µM) with Staphylococcus aureus [16]; 32 µg/mL (≈ 88.6 µM) with Staphylococcus aureus [17]; 32 µg/mL (≈ 88.6 µM) in the data set on Staphylococcus aureus [18]. The MIC is 4 µg/mL (≈ 11.1 µM) in the data set with Staphylococcus aureus [19]; 16 µg/mL (≈ 44.3 µM) with Staphylococcus aureus [20]; 32 µg/mL (≈ 88.6 µM) in the data set on Staphylococcus aureus [21]; 32 µg/mL (≈ 88.6 µM) in the data set with Staphylococcus aureus [22]; 8 µg/mL (≈ 22.1 µM) in the data set on Staphylococcus aureus [23]; 16 µg/mL (≈ 44.3 µM) with Staphylococcus aureus [24]. For the same compound, the MIC in the data set on Staphylococcus aureus [25], in the data set with Staphylococcus aureus [3] and in the data set on Staphylococcus aureus [26] was 0.25 µg/mL (≈ 0.692 µM) in each case.

With `CCOC(=O)c1c(N)csc1-c1cn(-c2ccccc2)nc1-c1ccc(C)cc1`, the minimal inhibitory concentration (MIC) in the data set with Staphylococcus aureus [27] was found to be 0.22 µg/mL (≈ 0.545 µM). Besides, the midpoint of inhibition on DNA gyrase, the IC50, lay at 12.3 µM.

The term MIC denotes the least concentration at which growth counts as inhibited. Usually CC50 stands for the concentration giving 50% cytotoxicity. What is called half-life is how long it takes for the measured level to halve. Broadly, the solubility is the concentration that dissolves in the medium under given conditions. Usually IC50 stands for the concentration needed to halve the response being measured.
